These results are taken from patent publication EP4722219A1 (Gan & Lee Pharmaceuticals Co., Ltd., priority 2023, dated 2024).

Common to all, as to assay type: cell-based
For assay [1], the target named is T1, SMARCA4 (Homo sapiens, UniProt P51532). Kind of assay: SMARCA4 degradation in SW1573 cells (Western blot). On the set-up: endogenous in cells; host or cells: SW1573. As to conditions: 24 hours, read-out: Degradation rate of SMARCA4 in SW1573 cells (%); for Dmax at 0.001 µM: 1 nM; for Dmax at 0.08 µM: 80 nM. The method, then:
SW1573 cells were seeded at 2x10^5Cells/well in a 6-well plate. 2 mL of EMEM medium supplemented with 10% FBS was added to each well and was incubated overnight to allow cell attachment. […] The cells were returned to the incubator and incubated for another 24 hours.
(§1) After 24 hours, cells were harvested, the medium was aspirated, and the cells were rinsed once with 1 mL/well PBS. The PBS was aspirated, and 40 µL/well of RIPA lysis buffer containing protease inhibitors was added. After lysis and centrifugation, total protein extracts were obtained, and protein concentration in the extracts was determined by BCA assay. Protein electrophoresis was performed by SDS-PAGE, followed by constant voltage electrophoresis at 100 V for 60 minutes and the protein was then transferred to a PVDF membrane. The PVDF membrane was blocked in 5% skim milk powder for 1 hour at room temperature. […] After washing the membrane, secondary antibodies were added and incubated at room temperature for 1 hour (protected from the light). After washing, the membrane was exposed using an Odyssey luminometer. Grayscale analysis of bands was performed using Image Studio software.
(§2) The degradation rate (%) of SMARCA2/4 by the PROTAC compounds of the present invention in HeLa cells and SW1573 cells is shown in Table 10. Table 10 Degradation rate of SMARCA2/4 by PROTAC compounds of the present invention in HeLa cells and SW1573 cells (%)
For orientation: A western blot detects proteins with antibodies after separation by electrophoresis.

Assay [2] has as its target T2, SMARCA2 (Homo sapiens, UniProt P51531). Nature of the assay: SMARCA2 degradation in HeLa cells (Western blot). On the set-up: endogenous in cells. Particulars: 4 hours. In outline: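 HeLa cells treated 4 h with compound at final 80 nM or 1 nM (0.05% DMSO). SMARCA2 protein measured by Western blot with GAPDH loading control and band densitometry, giving percent degradation.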

The target of assay [3] is T2, SMARCA2. Nature of the assay: SMARCA2 degradation in SW1573 cells (Western blot). On the set-up: endogenous in cells; host or cells: SW1573. Particulars: 24 hours. In outline: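 Cells were treated for 24 h at 80 nM or 1 nM final compound (0.05% DMSO). SMARCA2 and SMARCA4 in RIPA lysates were detected by SDS-PAGE/Western blot with GAPDH as loading control. Band intensities were quantified by densitometry to give percentage degradation.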

Assay [4] has as its target T1, SMARCA4. Kind of assay: SMARCA4 degradation in HeLa cells (Western blot). The arrangement: endogenous in cells. Particulars: 4 hours, read-out: Degradation rate of SMARCA4 in HeLa cells (%); for Dmax at 0.001 µM: 1 nM; for Dmax at 0.08 µM: 80 nM. The method, then:
HeLa cells were seeded at 1.2 x 10^5 cells/well in a 6-well plate. 2 mL of EMEM medium supplemented with 10% FBS was added to each well and the culture dish was incubated overnight to allow the cells to adhere. […] The cells were returned to the incubator and incubated for another 4 hours.
as §1, with “After 4 hours, cells” for “After 24 hours, cells”, “harvested, the culture medium was” for “harvested, the medium was”
as §2

T1 sequence (P51532 whole entry): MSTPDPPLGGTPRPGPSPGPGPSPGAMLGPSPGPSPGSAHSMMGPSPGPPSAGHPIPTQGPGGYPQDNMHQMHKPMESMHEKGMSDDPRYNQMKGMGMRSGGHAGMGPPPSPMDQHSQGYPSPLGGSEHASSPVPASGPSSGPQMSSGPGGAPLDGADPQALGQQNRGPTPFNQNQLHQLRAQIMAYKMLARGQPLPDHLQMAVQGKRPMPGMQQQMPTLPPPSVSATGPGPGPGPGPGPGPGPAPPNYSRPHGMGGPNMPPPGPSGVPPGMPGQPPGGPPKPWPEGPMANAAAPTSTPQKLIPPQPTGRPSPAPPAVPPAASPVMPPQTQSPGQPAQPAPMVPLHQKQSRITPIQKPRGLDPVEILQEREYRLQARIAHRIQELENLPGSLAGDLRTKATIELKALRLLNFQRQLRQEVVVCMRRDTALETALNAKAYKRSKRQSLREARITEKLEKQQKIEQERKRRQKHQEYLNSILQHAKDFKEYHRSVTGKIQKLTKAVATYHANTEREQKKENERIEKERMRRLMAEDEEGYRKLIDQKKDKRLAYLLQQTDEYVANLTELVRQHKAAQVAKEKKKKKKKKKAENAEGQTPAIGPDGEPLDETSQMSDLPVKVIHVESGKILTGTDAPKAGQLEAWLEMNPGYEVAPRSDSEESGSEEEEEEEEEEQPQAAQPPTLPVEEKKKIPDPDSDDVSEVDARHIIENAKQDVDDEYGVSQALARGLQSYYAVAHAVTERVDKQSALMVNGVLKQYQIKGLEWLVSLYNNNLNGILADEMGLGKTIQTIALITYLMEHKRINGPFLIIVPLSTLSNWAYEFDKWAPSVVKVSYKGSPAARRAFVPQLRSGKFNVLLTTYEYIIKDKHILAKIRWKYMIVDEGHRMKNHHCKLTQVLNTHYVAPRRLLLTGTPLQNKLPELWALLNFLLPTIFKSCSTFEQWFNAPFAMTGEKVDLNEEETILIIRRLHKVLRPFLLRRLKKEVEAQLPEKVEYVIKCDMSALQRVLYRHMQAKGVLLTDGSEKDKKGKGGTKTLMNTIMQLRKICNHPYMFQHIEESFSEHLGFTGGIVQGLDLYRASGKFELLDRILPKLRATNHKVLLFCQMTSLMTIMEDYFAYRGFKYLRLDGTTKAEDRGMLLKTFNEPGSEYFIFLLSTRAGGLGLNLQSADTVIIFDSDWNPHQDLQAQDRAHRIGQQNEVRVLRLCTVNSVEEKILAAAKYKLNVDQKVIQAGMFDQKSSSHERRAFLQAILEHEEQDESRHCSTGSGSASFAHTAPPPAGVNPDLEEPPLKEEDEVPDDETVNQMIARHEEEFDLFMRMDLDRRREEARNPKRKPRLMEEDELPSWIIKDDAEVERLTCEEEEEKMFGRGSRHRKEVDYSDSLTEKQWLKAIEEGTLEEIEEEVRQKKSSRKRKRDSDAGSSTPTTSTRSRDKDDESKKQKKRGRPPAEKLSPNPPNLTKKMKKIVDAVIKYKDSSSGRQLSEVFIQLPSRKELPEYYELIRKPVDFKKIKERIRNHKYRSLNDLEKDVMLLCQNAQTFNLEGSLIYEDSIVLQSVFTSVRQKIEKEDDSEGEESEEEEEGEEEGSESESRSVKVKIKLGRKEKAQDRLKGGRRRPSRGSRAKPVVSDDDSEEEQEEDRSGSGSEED
T2 sequence (P51531 whole entry): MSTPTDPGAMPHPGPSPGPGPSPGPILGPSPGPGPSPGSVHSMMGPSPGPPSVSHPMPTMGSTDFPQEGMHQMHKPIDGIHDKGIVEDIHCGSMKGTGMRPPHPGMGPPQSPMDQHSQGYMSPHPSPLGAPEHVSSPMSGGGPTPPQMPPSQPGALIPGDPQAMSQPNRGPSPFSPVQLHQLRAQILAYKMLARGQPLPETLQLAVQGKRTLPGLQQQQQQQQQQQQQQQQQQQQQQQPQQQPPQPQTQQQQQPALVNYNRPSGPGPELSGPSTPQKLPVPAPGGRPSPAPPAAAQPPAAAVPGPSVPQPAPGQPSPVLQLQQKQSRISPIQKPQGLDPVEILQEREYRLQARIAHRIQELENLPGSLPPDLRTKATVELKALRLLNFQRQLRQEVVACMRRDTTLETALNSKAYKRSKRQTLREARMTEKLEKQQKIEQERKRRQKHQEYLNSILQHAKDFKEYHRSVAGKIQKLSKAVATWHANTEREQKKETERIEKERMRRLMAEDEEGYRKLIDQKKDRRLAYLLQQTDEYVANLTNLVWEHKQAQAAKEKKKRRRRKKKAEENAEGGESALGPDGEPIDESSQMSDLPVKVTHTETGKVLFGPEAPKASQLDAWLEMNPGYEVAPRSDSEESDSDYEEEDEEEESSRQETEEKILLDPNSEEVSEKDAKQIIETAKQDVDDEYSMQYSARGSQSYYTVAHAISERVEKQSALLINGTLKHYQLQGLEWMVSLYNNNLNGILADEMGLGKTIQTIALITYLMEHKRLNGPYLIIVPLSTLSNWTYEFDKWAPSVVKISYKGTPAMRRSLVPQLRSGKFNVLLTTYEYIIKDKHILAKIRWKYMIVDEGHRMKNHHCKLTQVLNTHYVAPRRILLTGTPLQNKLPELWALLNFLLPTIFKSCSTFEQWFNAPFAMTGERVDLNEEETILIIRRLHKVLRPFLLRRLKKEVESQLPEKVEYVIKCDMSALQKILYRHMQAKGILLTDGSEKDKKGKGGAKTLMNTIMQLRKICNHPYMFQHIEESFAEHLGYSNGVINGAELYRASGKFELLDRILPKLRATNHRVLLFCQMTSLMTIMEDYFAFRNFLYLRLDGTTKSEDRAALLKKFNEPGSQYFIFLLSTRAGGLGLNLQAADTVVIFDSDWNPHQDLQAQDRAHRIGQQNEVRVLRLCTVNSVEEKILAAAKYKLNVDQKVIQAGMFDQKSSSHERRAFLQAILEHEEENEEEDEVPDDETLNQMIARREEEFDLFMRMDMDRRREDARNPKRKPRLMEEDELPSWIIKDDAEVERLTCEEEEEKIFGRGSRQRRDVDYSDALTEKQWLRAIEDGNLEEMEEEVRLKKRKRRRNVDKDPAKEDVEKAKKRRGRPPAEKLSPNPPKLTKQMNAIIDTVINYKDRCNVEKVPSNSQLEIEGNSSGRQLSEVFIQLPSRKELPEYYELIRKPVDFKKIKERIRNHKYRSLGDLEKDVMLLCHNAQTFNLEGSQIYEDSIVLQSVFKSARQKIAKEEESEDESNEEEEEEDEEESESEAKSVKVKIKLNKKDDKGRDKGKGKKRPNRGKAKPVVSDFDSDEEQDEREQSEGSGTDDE

On to `Nc1nnc(-c2ccccc2O)cc1C#CC1CCC2(CC1)CC(N1CCC3(CCc4ccc(NC5CCC(=O)NC5=O)cc4O3)CC1)C2` (centres unmarked) [SM-P-24, 3-((1'-(7-((3-amino-6-(2-hydroxyphenyl)pyridazin-4-yl)ethynyl)spiro[3.5]nonan-2-yl)spiro[chromane-2,4'-piperidin]-7-yl)amino)piperidine-2,6-dione], for which the Dmax at 0.001 µM on SMARCA4 [1] was 12%; on SMARCA4 [4], -34%. The Dmax at 0.08 µM at SMARCA4 [1] is 11%; at SMARCA4 [4] it was -1%. For the same compound, the figures for the “Degradation rate of SMARCA2 in HeLa cells (%)” value on SMARCA2 [2] (1 nM) and at SMARCA2 [2] (80 nM) were -10% and 29%, respectively. Moreover, the “Degradation rate of SMARCA2 in SW1573 cells (%)” value on SMARCA2 [3] (1 nM) is -29%; on SMARCA2 [3] (80 nM), -75%.
On to `Nc1nnc(-c2ccccc2O)cc1C#CC1CCC2(CC1)CC(N1CCC3(CC1)Cc1ccc(NC4CCC(=O)NC4=O)cc1O3)C2` (centres unmarked) [SM-P-25, 3-((1'-(7-((3-amino-6-(2-hydroxyphenyl)pyridazin-4-yl)ethynyl)spiro[3.5]nonan-2-yl)-3H-spiro[benzofuran-2,4'-piperidin]-6-yl)amino)piperidine-2,6-dione], for which the Dmax at 0.001 µM is -21% at SMARCA4 [1] and 6% at SMARCA4 [4]. Further, the Dmax at 0.08 µM is -10% at SMARCA4 [1] and 42% on SMARCA4 [4]. Also, the entries for the “Degradation rate of SMARCA2 in HeLa cells (%)” value on SMARCA2 [2] (1 nM) and on SMARCA2 [2] (80 nM) were 10% and 53%, respectively. Further, the results for the “Degradation rate of SMARCA2 in SW1573 cells (%)” value on SMARCA2 [3] (1 nM) and at SMARCA2 [3] (80 nM) were 11% and 50%, respectively.
Regarding `Cn1c(=O)n(C2CCC(=O)NC2=O)c2ccc3c(c21)OCC31CCN(C(=O)[C@H]2CC[C@H](Cn3cc(-c4cc(-c5ccccc5O)nnc4N)cn3)CC2)CC1` (some centres unmarked) [SM-P-27, 3-(1'-((1r,4r)-4-((4-(3-amino-6-(2-hydroxyphenyl)pyridazin-4-yl)-1H-pyrazol-1-yl)methyl)cyclohexane-1-carbonyl)-1-methyl-2-oxo-1,2-dihvdro-3H,7H-spiro[benzofuro[6,7-d]imidazole-6,4'-piperidin]-3-yl)piperidine-2,6-dione], the Dmax at 0.001 µM on SMARCA4 [1] was determined as 40%; at SMARCA4 [4], 22%. Also, the values for the Dmax at 0.08 µM at SMARCA4 [1] and on SMARCA4 [4] were 82% and 79%, respectively. Further, the “Degradation rate of SMARCA2 in HeLa cells (%)” value at SMARCA2 [2] (1 nM) worked out at 51%; on SMARCA2 [2] (80 nM), 90%. Moreover, the “Degradation rate of SMARCA2 in SW1573 cells (%)” value at SMARCA2 [3] (1 nM) was 59%; on SMARCA2 [3] (80 nM), 88%.
As for `Cn1c(=O)n(C2CCC(=O)NC2=O)c2cc3c(cc21)C1(CCN(C(=O)[C@H]2CC[C@H](Cn4cc(-c5cc(-c6ccccc6O)nnc5N)cn4)CC2)CC1)CO3` (some centres unmarked) [SM-P-28, 3-(1'-((1r,4r)-4-((4-(3-amino-6-(2-hydroxyphenyl)pyridazin-4-yl)-1H-pyrazol-1-yl)methyl)cyclohexane-1-carbonyl)-1-methyl-2-oxo-1,2-dihydro-3H,6H-spiro[benzofuro[5,6-d]imidazole-7,4'-piperidin]-3-yl)piperidine-2,6-dione], the Dmax at 0.001 µM at SMARCA4 [1] was 11%; at SMARCA4 [4] it was 38%. In addition, the results for the Dmax at 0.08 µM on SMARCA4 [1] and on SMARCA4 [4] were 95% and 99%, respectively. In addition, the “Degradation rate of SMARCA2 in HeLa cells (%)” value came out at 17% at SMARCA2 [2] (1 nM) and 98% on SMARCA2 [2] (80 nM). Besides, the “Degradation rate of SMARCA2 in SW1573 cells (%)” value at SMARCA2 [3] (1 nM) is 14%; at SMARCA2 [3] (80 nM) it was 77%.
